Patent publication US12600716B2 (Gannex Pharma Co., Ltd., priority 2020, dated 2026)
Where two headings read alike, the source gives them in different places. Values belong to the compound of their own block, whether it stands above or below them.

Tests used:
[1] = Mouse pharmacokinetic studies (IV and PO); format: in vivo, Male CD-1 mice; conditions: for PO F: PO 10 mg/kg vs IV 2.0 mg/kg; for Vd / AUC(0-t) / clearance / half-life / Cmax / Tmax: male, CD-1, plasma; for clearance: read-out: IV Cl; for half-life: read-out: IV T½ (converted)
Protocol: Mouse Pharmacokinetic Studies
Typical PK study procedure. For i.v. PK studies, a group of three fasted Male CD-1 mice were dosed with the compound (2.0 mg/kg, 0.50 mg/mL in 5% solutol in saline, clear solution), and 0.02 mL blood was collected at 0.0830, 0.250, 0.500, 1.00, 2.00, 4.00, 8.00, 24.0 h. For PO PK studies, a group of three fasted Male CD-1 mice were dosed with the compound (10 mg/kg, 1 mg/mL in 5% solutol in saline, clear solution), and 0.02 mL blood was collected at 0.250, 0.500, 1.00, 2.00, 4.00, 6.00, 8.00, 24.0 h. The blood was collected into EP tubes (containing EDTA K20.85-1.15 mg) and centrifuged at 3,000 g or 3,200 g at 4° C. for 10 min) and plasma was isolated and divided into two vials. One was used for bioanalysis and one was kept as backup. The samples were kept at −60° C. or below, until being analyzed by LC MS/MS. The samples were analyzed with AB SCIEX INSTRUMENTS LC-MS/MS AU-Triple Quad 6500 Plus and data were processed with Phoenix WinNonlin 6.3 (IV-noncompartmental model and PO-noncompartmental model).

hFXR-LBD-GAL4 = target: T1, hFXR-LBD-GAL4 (Homo sapiens, UniProt Q96RI1); assay: FXR agonist transactivation ability: luciferase reporter gene in HEK293T; format: cell-based; conditions: read-out: Cell activity
T1 construct: GAL4 (fusion partner); host or cells: HEK293T
T1 sequence (Q96RI1 262-486 limits assumed): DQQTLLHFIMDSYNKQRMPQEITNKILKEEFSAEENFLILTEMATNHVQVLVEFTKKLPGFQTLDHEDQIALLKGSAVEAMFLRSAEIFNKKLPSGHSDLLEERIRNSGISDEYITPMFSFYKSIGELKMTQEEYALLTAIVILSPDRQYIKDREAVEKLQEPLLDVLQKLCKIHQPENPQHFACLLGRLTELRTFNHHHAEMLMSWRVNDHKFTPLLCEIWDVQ
Protocol: FXR Agonist Transactivation Ability
Evaluation of the ability of the compound of the present invention to promote FXR transactivation was conducted by using luciferase reporter gene expression technology.
• 1. Cell line: HEK293T (Invitrogen) • 2. Expression plasmid: pBIND-hFXR-LBD-GAL4 (Promega), pGL4.35-luciferase (Promega) • 3. Cell culture medium: 10% serum and penicillin/streptomycin double antibody in DMEM medium • 4. Detection reagent: Steady-Glo fluorescence detection system (Promega). • 5. Transfection reagent: TransIT-293 Transfection Reagent (MIRUS BIO)
• 1. The compound was prepared into a 10 mM DMSO stock solution and stored in a −20° C. refrigerator for a long time. • 2. Resuscitation HEK293T cells were seeded in 10 cm culture dishes at a concentration of 5.5×10^6 and incubated for 16 hours at 37° C. in a 5% CO2 incubator. • 3. Return the transfection reagent to room temperature before transfection. The Trans-IT solution was added dropwise to Opti-MEM, and mixed by inversion for 5 minutes; the expression plasmid was added, mixed by inversion, and incubated at room temperature for 20 minutes. • 4. Add the transfection mixture from Step 3 to the prepared 10 cm dish in Step 2 and incubate for 5-6 hours in a 5% CO2 incubator. • 5. Dilute the compound 3 folds to 10 concentration points using DMSO; add 25 nl of compound per well in a 384-well plate using an Echo 550 sonic pipette; add HEK293T cells to the 384-well plate at a concentration of 15,000 cells/well; 37° C. incubate for 16-20 hours in a 5% CO2 incubator. • 6. Add 25 μl of Steady-Glo Fluorescent Reagent to each well and read the fluorescence on an Envision 2104 plate reader. • 7. Calculate the EC50 value of the activation of the compound.

human FXR protein = target: T2, human FXR protein (Homo sapiens, UniProt Q96RI1); assay: FXR agonist binding ability: time-resolved fluorescence (LanthaScreen) FXR/coactivator assay; format: biochemical; conditions: GST-labeled human FXR, fluorescein-labeled coactivator, TR-FRET
T2 construct: purchased Invitrogen
Protocol: FXR Agonist Binding Ability Evaluation of the activation effect of the compound of the present invention with regard to the binding of FXR to its co-stimulatory factor SRC-1 was conducted by using time-resolved analytical techniques. Protein: glutathione-S-transferase (GST)-labeled human FXR protein (Invitrogen) • 2. Coactivator: Fluorescein-labeled steroid receptor coactivator (SRC2-2) (Invitrogen) • 3. Detection reagent: LanthaScreen Time-Resolved Fluorescence Analysis Kit (Invitrogen) • 1. The compound was prepared into a 10 mM DMSO stock solution and stored in a −20° C. refrigerator for a long time. • 2. The compound was diluted to 1 mM before the experiment, and then the compound was diluted 3-fold to 10 concentration points using DMSO. Then use buffer G (Invitrogen, PV4553) to dilute these 10 concentration points by 50 times to become a working fluid. Add 10 μl of each working solution to each well of a 384-well plate. • 3. Prepare a human FXR protein solution (final concentration 20 nM) in chilled buffer G and add 5 μl of human FXR protein solution to each well of a 384-well plate. • 4. Prepare a mix of buffer G containing 2 μM fluorescein-labeled steroid receptor coactivator and 20 nM GST antibody. • 5. Add 5 μl of the mixture prepared in Step 4 to a 384-well plate. • 6. Centrifuge the 384-well plate at 1000 g for 1 minute. • 7. Incubate for 1 hour at room temperature in the dark. • 8. Read the 384-well plate at 520 nm and 495 nm on an Envision 2104 plate reader. • 9. Calculate the EC50 value of the activation effect of the compound.

[2] = IV 2.0 mg/kg, read-out: IV AUC 0-t
[3] = PO 10 mg/kg, read-out: PO AUC 0-t

SMILES: Cc1cc(C(=O)O)cnc1Oc1ccc2cc(OCc3c(-c4c(Cl)cccc4Cl)noc3C3CC3)ccc2c1 [Compound 5, 6-((6-((5-cyclopropyl-3-(2,6-dichlorophenyl)isoxazol-4-yl)methoxy)naphthalen-2-yl)oxy)-5-methylnicotinic acid]
EC50 (hFXR-LBD-GAL4): > 1000 nM | EC50 (human FXR protein): > 500 nM

SMILES: O=C(O)c1ccncc1Oc1ccc2cc(OCc3c(-c4c(Cl)cccc4Cl)noc3C3CC3)ccc2c1 [Compound 16, 3-((6-((5-cyclopropyl-3-(2,6-dichlorophenyl)isoxazol-4-yl)methoxy)naphthalen-2-yl)oxy)isonicotinic acid]
EC50 (hFXR-LBD-GAL4): > 1000 nM | EC50 (human FXR protein): < 50 nM

SMILES: O=C(O)c1ccnc(Oc2ccc3cc(OCc4c(-c5c(Cl)cccc5Cl)noc4C4CC4)ccc3c2)c1 [Compound 12, 2-((6-((5-cyclopropyl-3-(2,6-dichlorophenyl)isoxazol-4-yl)methoxy)naphthalen-2-yl)oxy)isonicotinic acid]
EC50 (hFXR-LBD-GAL4): > 1000 nM | EC50 (human FXR protein): < 50 nM

SMILES: O=C(O)c1ncccc1Oc1ccc2cc(OCc3c(-c4c(Cl)cccc4Cl)noc3C3CC3)ccc2c1 [Compound 13, 3-((6-((5-cyclopropyl-3-(2,6-dichlorophenyl)isoxazol-4-yl)methoxy)naphthalen-2-yl)oxy)picolinic acid]
EC50 (hFXR-LBD-GAL4): > 1000 nM | EC50 (human FXR protein): 50 to 500 nM

SMILES: O=C(O)c1cccnc1Oc1ccc2cc(OCc3c(-c4c(Cl)cccc4Cl)noc3C3CC3)ccc2c1 [Compound 15, 2-((6-((5-cyclopropyl-3-(2,6-dichlorophenyl)isoxazol-4-yl)methoxy)naphthalen-2-yl)oxy)nicotinic acid]
EC50 (hFXR-LBD-GAL4): > 1000 nM | EC50 (human FXR protein): 50 to 500 nM

SMILES: O=C(O)c1ccc(Oc2ccc3cc(OCc4c(-c5c(Cl)cccc5Cl)noc4C4CC4)ccc3c2)nn1 [Compound 2, 6-((6-((5-cyclopropyl-3-(2,6-dichlorophenyl)isoxazol-4-yl)methoxy)naphthalen-2-yl)oxy)pyridazine-3-carboxylic acid]
EC50 (hFXR-LBD-GAL4): > 1000 nM | EC50 (human FXR protein): 50 to 500 nM

Second part, the compound after the results:

PO F [1]: 17% | Vd ([1]; IV 2.0 mg/kg): 0.745 L/kg | AUC(0-t) [1, 2]: 969 ng·h/mL | clearance ([1]; IV 2.0 mg/kg): 35 mL/min/kg | half-life ([1]; IV 2.0 mg/kg): 37.2 min | Cmax ([1]; PO 10 mg/kg): 900 ng/mL | Tmax ([1]; PO 10 mg/kg): 30 min | AUC(0-t) [1, 3]: 830 ng·h/mL | EC50 (hFXR-LBD-GAL4): < 200 nM | EC50 (human FXR protein): < 50 nM
SMILES: O=C(O)c1ccc(F)cc1Oc1cccc2cc(OCc3c(-c4c(Cl)cccc4Cl)noc3C3CC3)ccc12 [Compound 26, 2-((6-((5-cyclopropyl-3-(2,6-dichlorophenyl)isoxazol-4-yl)methoxy)naphthalen-1-yl)oxy)-4-fluorobenzoic acid]

PO F [1]: 33.2% | Vd ([1]; IV 2.0 mg/kg): 0.897 L/kg | AUC(0-t) [1, 2]: 1690 ng·h/mL | clearance ([1]; IV 2.0 mg/kg): 19.7 mL/min/kg | half-life ([1]; IV 2.0 mg/kg): 96.6 min | Cmax ([1]; PO 10 mg/kg): 2080 ng/mL | Tmax ([1]; PO 10 mg/kg): 30 min | AUC(0-t) [1, 3]: 2780 ng·h/mL | EC50 (hFXR-LBD-GAL4): < 200 nM | EC50 (human FXR protein): < 50 nM
SMILES: Cc1nc(Oc2cccc3cc(OCc4c(-c5c(Cl)cccc5Cl)noc4C4CC4)ccc23)ccc1C(=O)O [Compound 27, 6-((6-((5-cyclopropyl-3-(2,6-dichlorophenyl)isoxazol-4-yl)methoxy)naphthalen-1-yl)oxy)-2-methylnicotinic acid]

PO F [1]: 46.2% | Vd ([1]; IV 2.0 mg/kg): 1.75 L/kg | AUC(0-t) [1, 2]: 969 ng·h/mL | clearance ([1]; IV 2.0 mg/kg): 35.8 mL/min/kg | half-life ([1]; IV 2.0 mg/kg): 76.8 min | Cmax ([1]; PO 10 mg/kg): 1480 ng/mL | Tmax ([1]; PO 10 mg/kg): 30 min | AUC(0-t) [1, 3]: 2220 ng·h/mL | EC50 (hFXR-LBD-GAL4): < 200 nM | EC50 (human FXR protein): 50 to 500 nM
SMILES: O=C(O)c1ccc(Oc2ccc3cc(OCc4c(-c5c(Cl)cccc5Cl)noc4C4CC4)ccc3c2Cl)nc1 [Compound 21, 6-((1-chloro-6-((5-cyclopropyl-3-(2,6-dichlorophenyl)isoxazol-4-yl)methoxy)naphthalen-2-yl)oxy)nicotinic acid]

PO F [1]: 28.6% | Vd ([1]; IV 2.0 mg/kg): 0.495 L/kg | AUC(0-t) [1, 2]: 1500 ng·h/mL | clearance ([1]; IV 2.0 mg/kg): 22.2 mL/min/kg | half-life ([1]; IV 2.0 mg/kg): 38.3 min | Cmax ([1]; PO 10 mg/kg): 2150 ng/mL | Tmax ([1]; PO 10 mg/kg): 30 min | AUC(0-t) [1, 3]: 2140 ng·h/mL | EC50 (hFXR-LBD-GAL4): < 200 nM | EC50 (human FXR protein): < 50 nM
SMILES: Cc1cc(C(=O)O)cnc1Oc1c(F)ccc2cc(OCc3c(-c4c(Cl)cccc4Cl)noc3C3CC3)ccc12 [Compound 47, 6-((6-((5-cyclopropyl-3-(2,6-dichlorophenyl)isoxazol-4-yl)methoxy)-2-fluoronaphthalen-1-yl)oxy)-5-methylnicotinic acid]

PO F [1]: 54.7% | Vd ([1]; IV 2.0 mg/kg): 1.36 L/kg | AUC(0-t) [1, 2]: 1400 ng·h/mL | clearance ([1]; IV 2.0 mg/kg): 24 mL/min/kg | half-life ([1]; IV 2.0 mg/kg): 61.8 min | Cmax ([1]; PO 10 mg/kg): 1400 ng/mL | Tmax ([1]; PO 10 mg/kg): 30 min | AUC(0-t) [1, 3]: 3810 ng·h/mL | EC50 (hFXR-LBD-GAL4): < 200 nM | EC50 (human FXR protein): < 50 nM
SMILES: O=C(O)c1ccc(Oc2ccc3c(F)c(OCc4c(-c5c(Cl)cccc5Cl)noc4C4CC4)ccc3c2)nc1 [Compound 32, 6-((6-((5-cyclopropyl-3-(2,6-dichlorophenyl)isoxazol-4-yl)methoxy)-5-fluoronaphthalen-2-yl)oxy)nicotinic acid]

EC50 (hFXR-LBD-GAL4): > 1000 nM | EC50 (human FXR protein): 50 to 500 nM
SMILES: O=C(O)c1ncccc1Oc1cccc2cc(OCc3c(-c4c(Cl)cccc4Cl)noc3C3CC3)ccc12 [Compound 25, 3-((6-((5-cyclopropyl-3-(2,6-dichlorophenyl)isoxazol-4-yl)methoxy)naphthalen-1-yl)oxy)picolinic acid]

EC50 (hFXR-LBD-GAL4): > 1000 nM | EC50 (human FXR protein): 50 to 500 nM
SMILES: O=C(O)c1ccc(Oc2ccc3c(OCc4c(-c5c(Cl)cccc5Cl)noc4C4CC4)cccc3c2)nc1 [Compound 36, 6-((5-((5-cyclopropyl-3-(2,6-dichlorophenyl)isoxazol-4-yl)methoxy)naphthalen-2-yl)oxy)nicotinic acid]

EC50 (hFXR-LBD-GAL4): > 1000 nM | EC50 (human FXR protein): > 500 nM
SMILES: O=C(O)c1cccc(Oc2cccc3cc(OCc4c(-c5c(Cl)cccc5Cl)noc4C4CC4)ccc23)n1 [Compound 23, 6-((6-((5-cyclopropyl-3-(2,6-dichlorophenyl)isoxazol-4-yl)methoxy)naphthalen-1-yl)oxy)picolinic acid]

EC50 (hFXR-LBD-GAL4): > 1000 nM | EC50 (human FXR protein): 50 to 500 nM
SMILES: O=C(O)c1c(F)cccc1Oc1cccc2cc(OCc3c(-c4c(Cl)cccc4Cl)noc3C3CC3)ccc12 [Compound 49]
